The target of assay [1] is T1, MtuATP-PRT (Mycobacterium tuberculosis, UniProt P9WMN1).
The target of assay [2] is T1, MtuATP-PRT. The assay is described as follows: competitive kinetic isotope effects, scintillation counting. The assay is classed as biochemical. To be noted: reverse reaction; co-substrate PRATP; alternative to pyrophosphate.

T1 sequence (P9WMN1 whole entry): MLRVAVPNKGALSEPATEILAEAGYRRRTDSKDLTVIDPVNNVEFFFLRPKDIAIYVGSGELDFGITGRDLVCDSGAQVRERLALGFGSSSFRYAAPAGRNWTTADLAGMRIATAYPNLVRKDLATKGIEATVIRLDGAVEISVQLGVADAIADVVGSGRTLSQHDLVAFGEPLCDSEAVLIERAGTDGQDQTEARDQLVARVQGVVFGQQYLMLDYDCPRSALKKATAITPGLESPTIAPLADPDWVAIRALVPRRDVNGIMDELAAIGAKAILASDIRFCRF

Take `Nc1ncnc2c1ncn2[C@@H]1O[C@H](COP(=O)(O)OP(=O)(O)OP(=O)(O)O)[C@@H](O)[C@H]1O` [ATP]: the “X-ray crystal structure (co-crystallisation)” value at MtuATP-PRT [1] was “a structure with ATP bound to MtuATP-PRT (PDB: 5U99) was obtained”.

As to `O=C(O)CP(=O)(O)O` [phosphonoacetic acid], the “competitive kinetic isotope effects, scintillation counting” value at MtuATP-PRT [2] is on record as “the ATP-PRT catalyzed reaction was studied using phosphonoacetic acid (PA) as an alternative”.

Source of the values: paper PMC6693643 (ACS chemical biology, 2017).
